How the values were obtained:
[1] = tested on: human lens epithelial cells (LECs); experiment: Confluent LEC monolayers exposed to solutions; MTT cell viability and microscopy; format: cell-based
[2] = tested on: human retinal-pigmented epithelial cells (RPECs); experiment: Confluent RPEC monolayers exposed to solutions; MTT cell viability; format: cell-based
Description: (§1) As described below, the confluent monolayers of LECs, CEDCs, and RPECs grown in 96-well flat-bottom plates are exposed to varying concentrations of NaCl (an osmolyte) solution. Two hundred μl of NaCl solution (prepared as described below) are added to each well at concentrations of 137 mM, 170 mM, 340 mM, 680 mM, 1360 mM and 2000 mM NaCl, respectively. The solutions have a pH of 8.0±0.4. The concentrations of NaCl correspond to final osmolarities of about 285 to 4000 mOsm/L, respectively.
(§2) The primary and first passages of human lens epithelial cells, human corneal endothelial cells, and human retinal-pigmented epithelial cells are cultured. The LECs, the CEDCs, and the RPECs are isolated from post-mortem eyes by using standard techniques of cell isolation and enzyme digestion. See Uebersax E D, Grindstaff R D and Defoe D M Exp Eye Res. 2000 March; 70(3): 381-90; Wagner L M, Saleh S M, Boyle D J, and Takemoto D J. Mol Vis. 2002 Mar. 14; 8: 59-66; Cammarata P R, Schafer G, Chen S W, Guo Z, and Reeves R E. Invest Ophthalmol Vis Sci. 2002 February; 43(2): 425-33; Rakic J M, Galand A, and Vrensen G F. Exp Eye Res. 2000 November; 71(5): 489-94. LECs and CEDCs are cultured in Eagle's minimum essential medium (MEM). RPECs are cultured in Ham's F10 medium, supplemented with 2 mM glutamine, 25 mmol/L Hepes, pH 7.4, 10 U/mL penicillin, and 10 μg/mL streptomycin and 15% heat-inactivated foetal cow serum (FCS). The primary cultured LECs, CEDCs, and RPECs are sub-cultured at 10^4 cells/wells in 96-well flat-bottom plates until they reached 90 to 100% confluence. These cells are grown to confluence in an incubator with a humidified atmosphere of 5% CO2 at 37° C. The cells are kept in a confluent state for overnight before assays.
(§3) After treatment, the treated cells are thoroughly washed, and cultured with fresh media for twelve hours before cell viability is assessed. The capability of these cells to survive at the indicated hypertonic stress levels is assessed by an MTT assay 12-24 hours post-exposure.
(§4) MTT assay is an assay to assess mitochondria function, performed as described by Mosmann (Mosmann, T. J Immunol Methods. 1983 Dec. 16; 65(1-2): 55-63. The tetrazolium salt 3-(4,5-dimethylthiazol-2-yl)-2,5-diphenyl tetrazolium bromide (MTT; supplied by Sigma Chemical Co.) is dissolved in Phosphate's Balanced Salt (PBS) Solutions at 5 mg/ml and sterilized by passage through a 0.22 μm Millipore filter. MTT stock solution is added to growth media at a ratio of 1 to 10. Cells are incubated with this growth media for three to four hours. In cells that are alive at the time of adding MTT, mitochondrial dehydrogenase cleaves the tetrazolium ring into a dark blue formazan reaction product, which builds up in the cell. MTT-reacted cultures are observed under brightfield microscopy without further processing. Cells in each well are scored as MTT-positive if they are completely filled with reaction product (in the case of unattached cells) or contain many formazan crystals emanating from multiple foci (in the case of attached or spread cells). MTT-reacted cultures are then lysised by dimethyl sulfoxide (DMSO) and read in a Microplate Reader to obtain a measure of cell viability.
Confluent monolayers of RPECs are prepared as described in Example 1. These cells are exposed for ten minutes to 200 μl/well of the solutions comprising increasing concentrations of NaCl (137 mM, 170 mM, 340 mM, 680 mM, 1360 mM and 2000 mM) at varying pH (8.4±0.5 and 10.6±0.5). The solutions of NaCl are prepared as described in Example 1. The pH of the solutions is adjusted with additions of 1 μl and 5 μl of 5N NaOH as described Example 3.
Confluent monolayers of LECs and RPECs are prepared as described in Example 1. […]
Confluent monolayers of LECs, CEDCs and RPECs are prepared as described in Example 1. […]
To assess whether there is any side effect of this treatment on other ocular cells, confluent monolayers of LECs, CEDCs and RPECs are prepared as described in Example 1. […]

[3] = tested on: human corneal endothelial cells (CEDCs); experiment: Confluent CEDC monolayers exposed to solutions; MTT cell viability; format: cell-based
Description: as §1
as §2, with “The primary cultured LECs, CEDCs, and RPECs are sub-cultured at 10^4 cells/wells in 96-well flat-bottom plates until they reached 90 to 100% confluence. These cells are grown to confluence in an incubator with a humidified atmosphere of 5% CO2 at 37° C. The cells are kept in a confluent state for overnight before assays.” left out
as §3
as §4, with “MTT-reacted cultures are observed under brightfield microscopy without further processing.” left out, “viability. […]” for “viability.”

[4] = tested on: human lens epithelial cells (LECs); experiment: Confluent LEC monolayers exposed to solutions; MTT cell viability and microscopy; format: cell-based; remark: listed apart in the source
Description: as §1, §2, §3, §4
Confluent monolayers of LECs are given three washes with Hank's Balanced Salt Solutions (HBSS) to remove FCS before the experiment. LECs are prepared in 96-well culture plates as in Example 1. These cells are exposed for about five to ten minutes to 200 μl/well of treatment solutions comprising increasing concentrations (˜135 mM, ˜170 mM, ˜340 mM, ˜680 mM, ˜1360 mM and ˜2000 mM) of NaCl (an osmolyte) in the presence and the absence of 30 μM frusemide (a co-transport interference agent, an ion transport mechanism interference agent). The treatment solutions have a pH of 8.0±0.4. After treatment, the treated cells are thoroughly washed, and cultured with fresh media. The viability of the treated LECs was determined by MTT assay 12-24 hours post-treatment as described in Example 1. […]

primary cultured LECs = experiment: LECs on glass cover-slip, inverted phase-contrast microscopy; format: cell-based, human; settings: ≦200 mM NaCl, 90 μM frusemide, 3 μl of 5N NaOH
Description: Confluent monolayers of LECs are prepared as described in Example 1 and grown on a glass cover-slip instead of 96-well flat bottom culture plates. The LECs are then thoroughly washed to remove serum.
Ten milliliters (10 mL) of the treatment solution containing ≦200 mM NaCl, 90 μM frusemide and 3 μl of 5N NaOH is prepared in a deep 35 mm petri-dish.
The cover-slips are then transferred to the petri-dish containing the treatment solution and are kept in the treatment solution for five to ten minutes. The treatment solution is then poured away, and the cover-slips along with detached LECs are thoroughly rinsed with a fresh HBSS solution with slight pressure using an aspiration/irrigation probe. After immediate examination and photography using inverted phase contrast microscope, the LECs are kept in culture for seven days with fresh medium to examine whether any residual cells would survive.

[5] = hypertonic stress of about 1380 mM NaCl, pH 8.0±0.4, MTT 12-24 hours post-exposure
[6] = 137-2000 mM NaCl, within about five to ten minutes after addition
[7] = ≧200 mM NaCl, 90 μM frusemide, 3 μl of 5N NaOH, about ten minutes

[Cl-].[Na+] [NaCl, sodium chloride]
LECs sensitivity to hypertonic stress ([1]; 170 and 340 mM NaCl, pH 8.0 to 10.6, ten minutes): increases with increasing pH and increasing NaCl concentrations | LEC detachment and bursting ([1]; 170 or 340 mM NaCl, pH about 8.9±0.8): detach effectively from their substrates but do not burst significantly | LECs burst and die ([1]; 170 or 340 mM NaCl, pH about 10.6±0.5, within five minutes): greater than seventy five | LECs survive (cell viability) [1, 5]: about forty | LECs survive ([1]; rapid hypertonic shock with 1380 mM NaCl, absence of frusemide, pH 8.0±0.4): about 40% | survival level of RPECs ([2]; 137-2000 mM NaCl, pH raised from 8.4±0.5 to 10.6±0.5, ten minutes): dramatic decrease in the survival level | shrinkage and loss of adhesion in RPECs [2, 6]: not seen as significantly | RPECs survive (cell viability) [2, 5]: more than eighty | shrinkage and loss of adhesion in CEDCs [3, 6]: not seen as significantly | CEDCs survive (cell viability) [3, 5]: more than eighty | LEC shrinkage and loss of adhesion [4, 6]: began to shrink, round up and lose adhesion from the monolayer in a dose-dependent manner | survival capability of the LECs (hypertonic shock NaCl concentration) ([4]; absence of frusemide): 200 mM

NS(=O)(=O)c1cc(C(=O)O)c(NCc2ccco2)cc1Cl [frusemide]
survival rate for LECs [1, 7]: less than ten | RPECs removed or killed ([2]; between 30 μM and 90 μM frusemide, ≦200 mM NaCl, 3 μl of 5N NaOH): few RPECs are removed or killed | RPECs survived [2, 7]: eighty | LEC appearance at five minutes post-treatment (primary cultured LECs): rounded up and separating from their substrate | LEC appearance at ten minutes post-treatment and after washing (primary cultured LECs): substantially clear substrate | CEDCs survived [3, 7]: more than seventy | LECs shrink, are lost or die ([4]; 10 μM frusemide, ≦200 mM NaCl, 3 μl of 5N NaOH, about ten minutes): more than 50% | LECs survive ([4]; 30 μM frusemide, rapid hypertonic shock with 340 mM NaCl, pH 8.0±0.4): almost no cells survive | LECs removed or killed ([4]; between 30 μM and 120 μM frusemide, ≦200 mM NaCl, 3 μl of 5N NaOH): > 90% | survival capability of the LECs (hypertonic shock NaCl concentration) ([4]; presence of 30 μM frusemide): 170 mM
